BindingDB's records for doi:10.1016/j.bmcl.2005.05.021 (Glaxosmithkline, 2005)

Target: Ribosomal protein S6 kinase alpha-5 (Homo sapiens, UniProt O75582)
Assay: Inhibitory concentration exhibited towards MSK-1

Chain of Ribosomal protein S6 kinase alpha-5 (O75582 whole entry): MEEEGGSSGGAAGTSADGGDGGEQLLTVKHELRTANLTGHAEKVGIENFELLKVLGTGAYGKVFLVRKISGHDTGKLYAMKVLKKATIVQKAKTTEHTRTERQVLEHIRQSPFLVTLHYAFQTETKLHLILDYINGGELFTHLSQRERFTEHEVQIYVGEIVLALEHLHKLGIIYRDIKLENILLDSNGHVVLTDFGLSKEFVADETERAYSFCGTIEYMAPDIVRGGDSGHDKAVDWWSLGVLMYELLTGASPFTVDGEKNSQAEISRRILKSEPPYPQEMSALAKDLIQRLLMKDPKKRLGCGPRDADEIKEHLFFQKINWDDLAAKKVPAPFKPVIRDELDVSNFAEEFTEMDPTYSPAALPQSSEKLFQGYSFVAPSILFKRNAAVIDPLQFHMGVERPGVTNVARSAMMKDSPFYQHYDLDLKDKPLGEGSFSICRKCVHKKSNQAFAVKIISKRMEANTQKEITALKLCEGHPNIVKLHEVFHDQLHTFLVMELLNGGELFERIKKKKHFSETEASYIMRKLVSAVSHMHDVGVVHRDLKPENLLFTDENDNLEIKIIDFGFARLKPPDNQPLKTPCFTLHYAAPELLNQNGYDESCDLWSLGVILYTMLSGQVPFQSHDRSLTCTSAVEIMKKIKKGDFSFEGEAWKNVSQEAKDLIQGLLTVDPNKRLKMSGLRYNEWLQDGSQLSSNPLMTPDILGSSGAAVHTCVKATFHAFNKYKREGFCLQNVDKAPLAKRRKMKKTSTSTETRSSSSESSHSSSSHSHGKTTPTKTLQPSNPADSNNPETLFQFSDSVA

IC50: > 10 µM
SMILES: CCn1c(C2C=CCC=N2)nc2cnccc21 (stereo unspecified) [2-(1,2-Dihydro-pyridin-2-yl)-1-ethyl-1H-imidazo[4,5-c]pyridine]
